US20120208781A1, “AMINOGLYCOSIDE DOSING REGIMENS” (Achaogen, Inc., priority 2009, published 2012)
In brackets after ≈: the same amount, converted by molar mass.

How the values were obtained:
P. aeruginosa (PA) = test: MIC, broth microdilution, Brooklyn hospital isolates: P. aeruginosa; format: cell-based; settings: Pseudomonas aeruginosa; PA (n = 33)
Procedure: In another study, the activity of Compound 1 against a collection of contemporary Gram-negative bacteria was determined. Unique patient isolates of P. aeruginosa (PA), A. baumannii (AB), K. pneumoniae (KP), E. coli (EC), and Enterobacter spp. (EB) from prior surveys at 16 Brooklyn, N.Y. hospitals were selected based on resistance patterns. The majority of isolates were fingerprinted by automated ribotyping. MICs were performed by broth microdilution. PCR was used to identify aminoglycoside-modifying enzymes (AMEs) in AB and KP and the KPC gene in Enterobacteriaceae (EN). The expression of the efflux genes mexA, C, E and X in PA, and adeB in AB was assessed by real-time RT-PCR.

[1] = In vitro stability in plasma, microsomes and hepatocytes; format: in vitro ADME; settings: liver microsomes and hepatocytes
Procedure: Bioanalytical data analyses were carried out using Analyst software (version 1.4.1, Applied Biosystems, Toronto, ON, Canada). […] PK parameters were determined by noncompartmental analysis using WinNonLin. Plasma protein binding was determined using equilibrium dialysis. In vitro stability was determined using commercially available plasma, microsomes and hepatocytes.

cochlear hair cells = test: Cytocochleogram analysis in 28-day guinea pig ototoxicity model; format: in vivo, guinea pigs
Procedure: Following euthanasia and whole body intravascular perfusion with 4% paraformaldehyde, the temporal bones of the left and right ears were removed. Gross middle ear assessments were performed using a dissecting microscope. […] Following gross middle ear assessment, the cochleas of the left ear were fixed by intrascalar perfusion with 4% paraformaldehyde. Cochlea tissues of both ears were placed in 4% paraformaldehyde for approximately 1 hour. Tissues were then transferred to 0.5% paraformaldehyde, stored refrigerated, and shipped on gel packs to the Kresge Hearing Research Institute, Ann Arbor, Mich., for further processing and cytocochleogram analysis.
These guinea pig ototoxicity studies also included microscopic analysis of surgically dissected cochleas from each animal to assess hair cell damage (cytocochleograms). The underlying cause of aminoglycoside related hearing loss is damage to the hair cells of the auditory system after significant accumulation of aminoglycosides in the inner ear. In the cochlea, drug-induced hair cell loss typically progresses from the basal to the apical turns of the cochlea. Perception of high-frequency sounds, a function of the basal hair cells, is lost first; perception of low-frequency sounds, a function of the more apical hair cells, is the last to be lost (Selimoglu, E., Curr Pharm Des. 2007; 13(1):119-26). For obvious reasons, it is impractical to obtain cytocochleograms from each animal prior to dosing, and some hair cell loss is usually observed in control (vehicle dosed) animals in these guinea pig studies. This variability makes it difficult to determine whether hair cell loss observed post-treatment is due to the drug treatment, especially mild hair cell loss, […]

## CN[C@@H]1[C@@H](O)[C@@H](O[C@@H]2[C@@H](O)[C@H](O[C@H]3OC(CNCCO)=CC[C@H]3N)[C@@H](N)C[C@H]2NC(=O)[C@@H](O)CCN)OC[C@]1(C)O [Compound 1, 6′-(2-Hydroxy-ethyl)-1-(4-amino-2(S)-hydroxy-butyryl)-sisomicin]
P. aeruginosa (PA)
  MIC50: 8 µg/mL (≈ 13.5 µM)
  MIC90: 16 µg/mL (≈ 27 µM)
[1]
  in vitro stability: stable
Cochlear hair cells; guinea pigs, 8 mg/kg
  animals with a few spikes of minimal hair cell loss: 2/8
Cochlear hair cells; guinea pigs, 30 mg/kg
  animals with minimal to moderate outer hair cell loss at the apical end or middle region: 3/8
Cochlear hair cells; guinea pigs, 80 mg/kg
  animals with large loss of outer hair cells across the length of the cochlea: One of 8
  animals with minimal loss of both inner and outer hair cells at the mid-cochlea or apical end: 2/8
Cochlear hair cells; guinea pigs, 8, 30, 80 mg/kg
  dose-response of hair cell loss: no dose-response of hair cell loss
